Data from ChEMBL document CHEMBL1201862, “PubChem BioAssay data set” (2004).
Calls of active or inactive are those of the source.

Columns and labels:
[1] = HGIII-sPLA2 enzyme inhibition potency – biochemical, QFRET, IC50, dose response (AID 743457);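 further: green fluorescence rise as the enzyme cleaves BODIPY PC-A2 in liposomes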
[2] = viability loss in HepG2 hepatoma cells – cell-based, ATP luminescence, cherry-pick, activator set 2, cytotoxicity control, dose response (AID 1053143); type: functional
[3] = target: T1, Small ubiquitin-related modifier 1 (Homo sapiens, UniProt P63165); experiment: SUMO1 protein interaction blockers, potency – biochemical, fluorescence polarization, uHTS hits, dose response (AID 624382); type: functional; details: read-out: IC50_Mean
[4] = target: T1, Small ubiquitin-related modifier 1; experiment: SUMO1 protein-protein binding blockers, potency – biochemical, FRET, dose response (AID 624383); type: functional; details: read-out: IC50_Mean
[5] = viability of uninfected HEp-2 cells – cell-based, HTS, cytotoxicity control for RSV inhibitor project, dose response (AID 2410); type: functional; details: human respiratory syncytial virus
[6] = target: SWI/SNF-related matrix-associated actin-dependent regulator of chromatin subfamily A member 2 (Homo sapiens, UniProt P51531); experiment: Luminescence-based cell-based high throughput dose response assay to identify activators of the function of SWI/SNF related, matrix associated, actin dependent regulator of chromatin, subfamily a, member 2 (SMARCA2, BRM).; type: functional
[7] = Counterscreen for activators of the function of SWI/SNF related, matrix associated, actin dependent regulator of chromatin, subfamily a, member 2 (SMARCA2, BRM): Luminescence-based cell-based high throughput dose response assay to identify non-selective compounds using the VP16 reporter assay.; type: functional
[8] = target: Peroxisome proliferator-activated receptor gamma/Nuclear receptor corepressor 2 (Homo sapiens, UniProt P37231+Q9Y618); experiment: Counterscreen for NR2E3 inverse agonists: TR-FRET-based biochemical high throughput dose response assay to identify inverse agonists of the interaction between peroxisome proliferator-activated receptor gamma (PPARg) and nuclear receptor co-repressor 2 (NCOR2).; type: functional
[9] = target: Photoreceptor-specific nuclear receptor (Homo sapiens, UniProt Q9Y5X4); experiment: ligands suppressing NR2E3 nuclear receptor activity – biochemical, TR-FRET, dose response (AID 463256); type: functional
[10] = HEK-293T viability loss after treatment – luminescence, T-cell screen hits, cytotoxicity control for TCR NF-kB inhibitor project, dose response (AID 489026); type: functional, cell-based;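 further: cells exposed to compound about 14 hours before the viability readout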
Fatty acid synthase = Fatty acid synthase (Homo sapiens, UniProt P49327); experiment: inhibition of human FAS-TE enzyme activity – biochemical, kinetic fluorescence intensity, dose response (AID 624326); type: functional;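 further: rate of fluorescence rise from hydrolysis of a fluorogenic O-methyl fluorescein ester substrate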
[11] = target: Disintegrin and metalloproteinase domain-containing protein 17 (Homo sapiens, UniProt P78536); experiment: exosite inhibitors of ADAM17, dose response, biochemical (AID 743260)
[12] = inhibition of ADAM10 peptide cleavage – biochemical, FRET peptide substrate, recombinant human ADAM10, selectivity assay for ADAM17 exosite inhibitor project, dose response (AID 743259);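 further: ADAM10 enzyme cleaving a FRET peptide substrate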
[13] = target: T2, Methionyl-tRNA synthetase, putative (Trypanosoma brucei brucei, UniProt Q38C91); type: functional, Trypanosoma brucei brucei strain 927/4 GUTat10.1
T2 sequence (Q38C91 whole entry): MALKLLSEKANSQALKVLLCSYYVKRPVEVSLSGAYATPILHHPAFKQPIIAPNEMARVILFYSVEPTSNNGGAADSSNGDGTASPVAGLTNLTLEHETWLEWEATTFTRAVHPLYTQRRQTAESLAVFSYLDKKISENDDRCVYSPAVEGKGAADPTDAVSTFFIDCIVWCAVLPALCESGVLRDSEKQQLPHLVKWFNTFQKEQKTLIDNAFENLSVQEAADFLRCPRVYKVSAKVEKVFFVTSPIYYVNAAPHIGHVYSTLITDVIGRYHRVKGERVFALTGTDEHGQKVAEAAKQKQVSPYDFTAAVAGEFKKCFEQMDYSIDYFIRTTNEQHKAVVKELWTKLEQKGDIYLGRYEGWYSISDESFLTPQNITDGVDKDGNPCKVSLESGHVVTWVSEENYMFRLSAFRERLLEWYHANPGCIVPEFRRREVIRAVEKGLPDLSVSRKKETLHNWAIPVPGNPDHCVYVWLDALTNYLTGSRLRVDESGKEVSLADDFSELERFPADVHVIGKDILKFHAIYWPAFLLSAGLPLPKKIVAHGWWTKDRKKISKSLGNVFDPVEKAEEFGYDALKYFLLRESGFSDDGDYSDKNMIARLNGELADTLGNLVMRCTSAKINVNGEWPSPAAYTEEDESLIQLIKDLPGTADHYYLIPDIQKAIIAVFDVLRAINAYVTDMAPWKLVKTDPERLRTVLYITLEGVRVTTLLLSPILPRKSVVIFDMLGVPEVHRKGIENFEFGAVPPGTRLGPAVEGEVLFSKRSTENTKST

[14] = Counterscreen for inhibitors of Trypanosoma brucei methionyl tRNA synthetase (MetRS): Luminescence-based cell-based high throughput dose response assay to identify compounds that are cytotoxic to Jurkat human T lymphocyte cells.; type: functional
[15] = target: T2, Methionyl-tRNA synthetase, putative; type: functional, Trypanosoma brucei brucei strain 927/4 GUTat10.1; remark: listed apart in the source
[16] = microbe, parasite or virus in culture; type: functional; details: Mycobacterium tuberculosis
cells = type: functional
Aminopeptidase N = target: T3, Aminopeptidase N (Plasmodium falciparum FcB1/Columbia, UniProt O96935); experiment: malaria alanyl aminopeptidase activity blockers – biochemical, fluorogenic H-Leu-NHMec substrate, 1536-well (AID 1445); design: species or system Plasmodium falciparum 3D7, 3D7
T3 sequence (O96935 whole entry): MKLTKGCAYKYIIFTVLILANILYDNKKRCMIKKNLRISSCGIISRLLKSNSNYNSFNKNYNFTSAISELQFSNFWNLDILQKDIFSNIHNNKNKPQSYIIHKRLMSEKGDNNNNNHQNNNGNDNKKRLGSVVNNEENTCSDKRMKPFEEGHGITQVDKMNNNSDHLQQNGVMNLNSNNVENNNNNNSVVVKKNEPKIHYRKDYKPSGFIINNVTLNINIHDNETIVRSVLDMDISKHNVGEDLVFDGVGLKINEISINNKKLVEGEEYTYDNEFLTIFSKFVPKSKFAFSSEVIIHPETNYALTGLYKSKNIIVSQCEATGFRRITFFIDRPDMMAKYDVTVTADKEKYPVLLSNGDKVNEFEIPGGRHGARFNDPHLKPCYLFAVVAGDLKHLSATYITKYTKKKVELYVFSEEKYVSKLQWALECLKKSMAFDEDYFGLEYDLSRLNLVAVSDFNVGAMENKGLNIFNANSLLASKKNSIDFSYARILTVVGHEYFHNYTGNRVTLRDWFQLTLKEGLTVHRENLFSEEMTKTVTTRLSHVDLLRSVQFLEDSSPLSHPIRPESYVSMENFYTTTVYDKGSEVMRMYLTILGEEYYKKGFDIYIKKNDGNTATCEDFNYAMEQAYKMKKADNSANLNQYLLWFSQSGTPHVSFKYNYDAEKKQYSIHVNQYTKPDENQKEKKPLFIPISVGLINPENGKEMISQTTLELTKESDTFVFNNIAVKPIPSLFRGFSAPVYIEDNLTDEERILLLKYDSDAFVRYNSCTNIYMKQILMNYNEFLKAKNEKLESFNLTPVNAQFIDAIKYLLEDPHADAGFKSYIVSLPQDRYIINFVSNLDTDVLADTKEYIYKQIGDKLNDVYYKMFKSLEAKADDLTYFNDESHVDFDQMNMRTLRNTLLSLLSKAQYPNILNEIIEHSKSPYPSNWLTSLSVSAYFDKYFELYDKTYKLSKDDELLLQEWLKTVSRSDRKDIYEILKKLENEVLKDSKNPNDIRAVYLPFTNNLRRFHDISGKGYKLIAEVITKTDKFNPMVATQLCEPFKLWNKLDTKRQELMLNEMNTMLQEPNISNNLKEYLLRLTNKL

[17] = tested on: Streptococcus sp. 'group A'; experiment: Streptococcus pyogenes SK(-)GAS viability under kanamycin – luminescence, BacTiterGlo, confirmation, counter-screen for streptokinase expression inhibitor project, dose response (AID 1900); type: functional, organism-based
Streptococcus = experiment: GAS UMAA2166 growth inhibition – luminescence, BacTiterGlo, counter-screen for streptokinase expression inhibitor project, dose response (AID 1915); type: functional, organism-based;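 further: potency for reduction of bacterial viability or growth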
[18] = target: T4, Probable nicotinate-nucleotide adenylyltransferase (Staphylococcus aureus (strain N315), UniProt P65502); type: functional, Staphylococcus aureus subsp. aureus N315;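 on IC50 Mean: confirmatory dose-response retesting of NadD inhibitor hits first found in an ultra-high-throughput screen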
[19] = target: T4, Probable nicotinate-nucleotide adenylyltransferase; type: functional, Staphylococcus aureus subsp. aureus N315; details: read-out: IC50_Mean
[20] = target: ADP-ribosylation factor GTPase-activating protein 1 (Rattus norvegicus, UniProt Q62848); experiment: Fluorescence polarization-based biochemical high throughput dose response screening assay to identify inhibitors of ADP-ribosylation factor GTPase activating protein 1 (ARFGAP1).; type: functional
[21] = target: 5-hydroxytryptamine receptor 2A (Mus musculus, UniProt P35363); type: functional, cell-based;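 further: CHO-K1 cells with tagged receptor and beta-arrestin; agonist potency measured as compound-induced activation of the receptor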
Sequence of 5-hydroxytryptamine receptor 2A (P35363 whole entry): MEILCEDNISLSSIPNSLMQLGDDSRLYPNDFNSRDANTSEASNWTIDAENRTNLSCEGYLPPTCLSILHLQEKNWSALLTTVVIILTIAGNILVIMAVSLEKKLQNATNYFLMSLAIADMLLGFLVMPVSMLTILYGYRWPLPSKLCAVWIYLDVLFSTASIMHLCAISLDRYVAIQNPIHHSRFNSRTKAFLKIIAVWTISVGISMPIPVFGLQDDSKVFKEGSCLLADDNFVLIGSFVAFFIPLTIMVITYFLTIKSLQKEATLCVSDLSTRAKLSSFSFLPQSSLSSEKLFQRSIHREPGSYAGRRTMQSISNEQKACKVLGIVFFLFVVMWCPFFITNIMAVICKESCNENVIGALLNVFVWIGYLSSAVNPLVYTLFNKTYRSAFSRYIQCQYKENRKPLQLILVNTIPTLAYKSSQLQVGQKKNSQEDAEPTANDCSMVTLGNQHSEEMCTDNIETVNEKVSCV

T4 sequence (P65502 whole entry): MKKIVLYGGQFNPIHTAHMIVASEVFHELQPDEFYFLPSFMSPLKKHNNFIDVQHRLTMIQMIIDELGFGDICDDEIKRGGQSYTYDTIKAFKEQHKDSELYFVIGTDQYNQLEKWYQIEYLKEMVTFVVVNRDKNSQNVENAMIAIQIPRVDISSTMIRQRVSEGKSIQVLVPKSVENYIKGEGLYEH
Sequence of SWI/SNF-related matrix-associated actin-dependent regulator of chromatin subfamily A member 2 (P51531 whole entry): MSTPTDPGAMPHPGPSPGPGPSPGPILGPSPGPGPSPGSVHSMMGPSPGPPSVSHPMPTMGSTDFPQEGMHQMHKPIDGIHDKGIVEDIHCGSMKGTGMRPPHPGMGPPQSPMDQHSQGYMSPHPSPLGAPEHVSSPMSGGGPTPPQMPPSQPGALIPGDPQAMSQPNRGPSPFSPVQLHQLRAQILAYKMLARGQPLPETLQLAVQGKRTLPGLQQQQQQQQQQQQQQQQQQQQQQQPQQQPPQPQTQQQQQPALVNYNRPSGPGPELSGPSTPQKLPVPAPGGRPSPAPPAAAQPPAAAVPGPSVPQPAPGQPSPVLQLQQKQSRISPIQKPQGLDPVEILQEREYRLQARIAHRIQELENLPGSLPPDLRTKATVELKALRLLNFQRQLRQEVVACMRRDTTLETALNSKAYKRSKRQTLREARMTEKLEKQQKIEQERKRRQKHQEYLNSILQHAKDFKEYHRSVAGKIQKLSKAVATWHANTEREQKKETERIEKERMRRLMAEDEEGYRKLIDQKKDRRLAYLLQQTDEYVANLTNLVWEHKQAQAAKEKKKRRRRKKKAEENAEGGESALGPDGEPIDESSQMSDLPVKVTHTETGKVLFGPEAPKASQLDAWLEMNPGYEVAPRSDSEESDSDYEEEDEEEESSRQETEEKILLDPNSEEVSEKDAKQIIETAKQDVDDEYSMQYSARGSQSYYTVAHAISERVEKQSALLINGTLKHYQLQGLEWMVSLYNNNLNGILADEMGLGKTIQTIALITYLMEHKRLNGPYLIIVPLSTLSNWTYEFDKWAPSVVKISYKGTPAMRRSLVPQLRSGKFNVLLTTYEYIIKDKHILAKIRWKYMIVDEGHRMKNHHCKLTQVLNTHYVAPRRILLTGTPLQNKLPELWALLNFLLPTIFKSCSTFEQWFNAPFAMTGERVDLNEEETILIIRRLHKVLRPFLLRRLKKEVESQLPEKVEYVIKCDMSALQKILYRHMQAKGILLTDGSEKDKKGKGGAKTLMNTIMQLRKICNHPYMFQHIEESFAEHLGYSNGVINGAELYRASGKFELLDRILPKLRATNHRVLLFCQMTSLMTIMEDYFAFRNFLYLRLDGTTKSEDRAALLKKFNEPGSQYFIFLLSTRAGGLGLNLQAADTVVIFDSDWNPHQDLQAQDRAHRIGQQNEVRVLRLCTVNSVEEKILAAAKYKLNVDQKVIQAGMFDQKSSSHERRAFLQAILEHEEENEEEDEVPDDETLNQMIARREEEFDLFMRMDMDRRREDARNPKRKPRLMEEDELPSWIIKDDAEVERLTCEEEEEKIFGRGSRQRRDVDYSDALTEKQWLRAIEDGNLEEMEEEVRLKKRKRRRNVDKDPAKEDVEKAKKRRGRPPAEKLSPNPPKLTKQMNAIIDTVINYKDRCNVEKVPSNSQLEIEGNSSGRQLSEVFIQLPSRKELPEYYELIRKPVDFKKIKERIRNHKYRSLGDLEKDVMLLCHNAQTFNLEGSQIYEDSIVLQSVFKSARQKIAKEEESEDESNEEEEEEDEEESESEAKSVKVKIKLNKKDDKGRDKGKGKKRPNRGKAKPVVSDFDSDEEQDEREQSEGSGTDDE
T1 sequence (P63165 whole entry): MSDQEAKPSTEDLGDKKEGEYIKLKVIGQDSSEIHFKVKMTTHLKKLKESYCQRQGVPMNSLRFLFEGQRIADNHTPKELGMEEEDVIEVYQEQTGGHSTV
Sequence of Disintegrin and metalloproteinase domain-containing protein 17 (P78536 whole entry, the tested form may be a part): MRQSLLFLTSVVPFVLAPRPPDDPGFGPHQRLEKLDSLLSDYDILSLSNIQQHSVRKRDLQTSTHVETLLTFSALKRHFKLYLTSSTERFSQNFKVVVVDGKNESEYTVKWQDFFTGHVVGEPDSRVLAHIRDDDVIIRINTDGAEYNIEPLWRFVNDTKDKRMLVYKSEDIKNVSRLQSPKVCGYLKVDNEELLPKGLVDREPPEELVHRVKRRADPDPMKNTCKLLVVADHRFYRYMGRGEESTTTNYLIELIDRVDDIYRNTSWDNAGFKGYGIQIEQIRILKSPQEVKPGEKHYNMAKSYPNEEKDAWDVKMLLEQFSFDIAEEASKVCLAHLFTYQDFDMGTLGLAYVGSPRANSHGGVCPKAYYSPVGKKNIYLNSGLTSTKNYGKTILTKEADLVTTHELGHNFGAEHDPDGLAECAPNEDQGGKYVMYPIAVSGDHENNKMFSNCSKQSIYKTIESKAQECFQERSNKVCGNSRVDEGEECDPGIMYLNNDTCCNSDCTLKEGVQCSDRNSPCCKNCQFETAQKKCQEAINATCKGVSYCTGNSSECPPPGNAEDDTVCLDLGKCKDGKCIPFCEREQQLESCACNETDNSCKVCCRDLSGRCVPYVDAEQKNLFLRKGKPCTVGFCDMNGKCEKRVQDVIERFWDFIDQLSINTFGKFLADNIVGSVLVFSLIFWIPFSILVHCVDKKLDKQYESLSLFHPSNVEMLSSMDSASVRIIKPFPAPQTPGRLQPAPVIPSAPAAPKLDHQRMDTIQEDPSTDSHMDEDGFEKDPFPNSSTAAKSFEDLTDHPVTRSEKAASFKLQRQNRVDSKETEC
Sequence of Photoreceptor-specific nuclear receptor (Q9Y5X4 whole entry): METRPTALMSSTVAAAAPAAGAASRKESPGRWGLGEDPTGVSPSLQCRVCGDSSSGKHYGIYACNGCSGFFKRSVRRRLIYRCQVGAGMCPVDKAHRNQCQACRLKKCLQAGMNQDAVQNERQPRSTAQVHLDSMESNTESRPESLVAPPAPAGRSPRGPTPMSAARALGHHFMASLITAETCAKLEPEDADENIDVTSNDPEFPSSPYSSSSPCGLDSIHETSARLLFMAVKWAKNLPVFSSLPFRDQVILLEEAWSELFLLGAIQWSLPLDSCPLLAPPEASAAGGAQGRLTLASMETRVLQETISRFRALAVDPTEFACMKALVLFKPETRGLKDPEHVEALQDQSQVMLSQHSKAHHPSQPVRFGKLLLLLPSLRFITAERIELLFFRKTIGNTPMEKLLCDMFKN
Sequence of ADP-ribosylation factor GTPase-activating protein 1 (Q62848 whole entry): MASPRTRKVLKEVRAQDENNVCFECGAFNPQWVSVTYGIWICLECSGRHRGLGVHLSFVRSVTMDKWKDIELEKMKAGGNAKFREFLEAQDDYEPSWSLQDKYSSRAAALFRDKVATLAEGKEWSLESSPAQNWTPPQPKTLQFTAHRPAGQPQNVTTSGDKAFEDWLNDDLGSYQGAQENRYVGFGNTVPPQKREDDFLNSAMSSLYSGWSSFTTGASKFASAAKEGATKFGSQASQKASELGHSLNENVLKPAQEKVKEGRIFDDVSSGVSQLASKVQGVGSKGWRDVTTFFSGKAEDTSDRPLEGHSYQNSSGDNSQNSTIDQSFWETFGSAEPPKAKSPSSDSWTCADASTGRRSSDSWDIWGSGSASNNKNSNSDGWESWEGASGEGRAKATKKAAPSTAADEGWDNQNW

CN1/C(=C\C(=O)Nc2ccc(F)cc2)C(C)(C)c2ccccc21
IC50 [1]: > 122 µM (inactive)

Cc1occc1C(=O)Nc1ccc2c(c1)OCCO2
AC50 [2]: > 52 µM (inactive)

C/C=C/C=C\C(=O)Nc1cccc(C2=NOC3(C2)C[C@H](C(N)=O)N(C(=O)CC#N)C3)c1 (stereo partly specified)
IC50 [3]: > 66.6 µM (inactive) | IC50 [4]: 3.34 µM (active)

c1ccc2c(c1)nnn2-c1ncnc2sccc12
CC50 [5]: 46.8 µM (active) | EC50 [6]: > 91.2 µM (inactive) | EC50 [7]: > 91.2 µM (inactive)

CC1(C)Cc2c(sc(NC(=O)COc3cccc4ccccc34)c2C#N)C(C)(C)N1
IC50 [8]: 8.33 µM (active) | IC50 [9]: 8.84 µM (active) | IC50 [10]: > 80 µM (inactive) | EC50 [6]: > 10.1 µM (inactive) | EC50 [7]: > 91.2 µM (inactive)

Cc1ccc(NC(=O)NNC(=O)Cn2nc(-c3ccccc3)c(-c3ccccc3)c(C#N)c2=O)cc1
IC50 (Fatty acid synthase): 4.64 µM (active) | IC50 [11]: > 69.5 µM (inactive) | IC50 [12]: > 69.5 µM (inactive)

O=C(CCCNC(=O)c1ccc(Cl)cc1)Nc1ccc(Br)cc1
IC50 [13]: 119 µM (inactive) | IC50 [14]: 83.4 µM (inactive) | IC50 [15]: 7.11 µM (active)

Oc1cc(NCc2cccnc2)ccc1-c1nc2ccccc2o1
CC50 [16]: > 40 µM (active) | IC50 (cells): 14.1 µM (active) | AC50 [2]: 26 µM (active)

COc1ccc(NC(=O)CSc2nc(O)c3c(C(F)(F)F)cc(-c4cccs4)nc3n2)c(OC)c1
IC50 (Aminopeptidase N): 56.5 µM (active) | EC50 [17]: 11.6 µM (active) | EC50 (Streptococcus): 124 µM (active) | IC50 [18]: 4.89 µM (active) | IC50 [19]: 32.1 µM (active)

O=C(NNC(=O)c1ccc(-n2cncn2)c([N+](=O)[O-])c1)c1ccccc1
IC50 [13]: 32.3 µM (inactive) | IC50 [14]: 83.3 µM (inactive) | IC50 [15]: 11.9 µM (inactive)

COc1cc(NC(=O)COc2ccc([N+](=O)[O-])cc2)ccc1NC(=O)c1ccco1
IC50 [20]: 33.6 µM (inactive)

NC[C@H](O)c1ccc(O)c(O)c1 [NOREPINEPHRINE BITARTRATE]
EC50 [21]: 0.806 µM (active)
